The NIST ThermoML archive (doi:10.1016/j.jct.2018.01.023)
Numbers after ± are expanded uncertainties.

Details: Crystal; for mass density: 101.33 kPa, X-ray diffraction; for Normal melting temperature: DTA

SMILES | mass density (293 K) | mass density (473 K) | mass density (573 K) | mass density (673 K) | mass density (773 K) | mass density (873 K) | mass density (973 K) | Normal melting temperature
[F-].[Li+] [lithium fluoride] | 2634 ± 2 kg/m3 | 2576 ± 12 kg/m3 | 2554 ± 11 kg/m3 | 2522 ± 12 kg/m3 | 2493 ± 13 kg/m3 | 2455 ± 12 kg/m3 | 2432 ± 9 kg/m3 | 845 ± 10 °C
[F][Ni][F] [nickel difluoride] | 4808 ± 24 kg/m3 |  |  |  |  |  |  | 1356 ± 10 °C
[F-].[F-].[F-].[K+].[Ni+2] [nickel potassium fluoride (KNiF3)] |  |  |  |  |  |  |  | 1120 ± 20 °C
[F-].[K+] [potassium fluoride] | 2530 ± 12 kg/m3 |  |  |  |  |  |  | 856 ± 10 °C
